Consider 4 compounds from patent publication US9475759B2, “Tigecycline crystalline hydrate and preparation method therefor and use thereof” (priority 2011, dated 2016).

A short description of the data set: Test for hygroscopicity (hygroscopic weight gain). The format is physicochemical. To be noted: 25° C., relative humidity about 70%, about 5 g sample, sampling time 12 hours. The protocol:
The tigecycline crystalline hydrates according to the invention can be stable for storage. A hygroscopicity test is conducted directed to a tigecycline hydrate sample and a tigecycline anhydride sample: about 5 g of the tigecycline anhydride and 5 g of the hydrate of the invention are taken, and they are placed in a dry and weight-constant surface vessel and precisely weighted. […] On the conditions of RH 75% and 30° C., the tigecycline crystalline hydrate is sealed in a vial for conducting a six-month acceleration stability test. According to the testing conditions of HPLC process of the tigecycline in relevant literatures: C18 (250 mm×4.6 mm, 5 μm) acetonitrile:phosphate buffer (1.29 g of citric acid and 2.76 g of anhydrous disodium hydrogen phosphate are dissolved in water and diluted to 1000 ml) (80:20) as the mobile phase; detection wavelength is 248 nm; the column temperature is room temperature; and the flowing rate is 1 ml/min. Under the conditions, the tigecycline contents and related substances are determined.
The tigecycline hydrates of the present invention may be stable for storage. Samples of tigecycline hydrates and anhydrides and amorphous tigecycline are used to conduct the test for hygroscopicity: respectively, about 5 g tigecycline anhydrides (obtained by drying tigecycline.0.5H2O hydrate prepared according to Example 1), about 5 g amorphous tigecycline (prepared by referring to the process as described in the reference document CN101367747A) and about 5 g the hydrates of the present invention are placed in a dry and constant weight watch glass, and the system is precisely weighed.
On to `CN(C)c1cc(NC(=O)CNC(C)(C)C)c(O)c2c1C[C@H]1C[C@H]3[C@H](N(C)C)C(O)=C(C(N)=O)C(=O)[C@@]3(O)C(O)=C1C2=O` [Tigecycline anhydride], for which the “As compared to the sample time of 0 h, weight gains %” value is 1.4%.
Under `CN(C)c1cc(NC(=O)CNC(C)(C)C)c(O)c2c1C[C@H]1C[C@H]3[C@H](N(C)C)C(O)=C(C(N)=O)C(=O)[C@@]3(O)C(O)=C1C2=O.CN(C)c1cc(NC(=O)CNC(C)(C)C)c(O)c2c1C[C@H]1C[C@H]3[C@H](N(C)C)C(O)=C(C(N)=O)C(=O)[C@@]3(O)C(O)=C1C2=O.O` [Tigecycline•0.5 H2O hydrate, Tigecycline.0.5H2O Hydrate] stands 0.2%.
Under `CN(C)c1cc(NC(=O)CNC(C)(C)C)c(O)c2c1CC1CC3C(N(C)C)C(O)=C(C(N)=O)C(=O)C3(O)C(O)=C1C2=O.O.O` (stereo not shown) [Tigecycline•2 H2O hydrate, Tigecycline.2H2O Hydrate] stands 0.1%; under `CN(C)c1cc(NC(=O)CNC(C)(C)C)c(O)c2c1C[C@H]1C[C@H]3[C@H](N(C)C)C(O)=C(C(N)=O)C(=O)[C@@]3(O)C(O)=C1C2=O` [Amorphous tigecyline, tigecycline], 1.3%.
